In US20240109885A1, “2,3-DIHYDRO-1H-PYRROLO[3,2-B]PYRIDINE DERIVATIVE, PREPARATION METHOD THEREFOR, AND APPLICATION THEREOF” (Abbisko Therapeutics Co., Ltd, priority 2020, published 2024):

Assays:
Type in all cases: cell-based
[1] = target: Ba/F3 EGFR-D770-N771ins_SVD (Homo sapiens, UniProt P00533, DUP768-770, cells depend on it); experiment: Cell proliferation assay (CellTiter-Glo), Ba/F3 EGFR-D770-N771ins_SVD cells; conditions: 72 hrs, CTG assay, * = average of multiple measurements, read-out: Ba/F3 EGFR-D770-N771ins_SVD (nM), IC50 of cell proliferation
Sequence of Ba/F3 EGFR-D770-N771ins_SVD (P00533 with tags, fused parts or gaps DUP768-770): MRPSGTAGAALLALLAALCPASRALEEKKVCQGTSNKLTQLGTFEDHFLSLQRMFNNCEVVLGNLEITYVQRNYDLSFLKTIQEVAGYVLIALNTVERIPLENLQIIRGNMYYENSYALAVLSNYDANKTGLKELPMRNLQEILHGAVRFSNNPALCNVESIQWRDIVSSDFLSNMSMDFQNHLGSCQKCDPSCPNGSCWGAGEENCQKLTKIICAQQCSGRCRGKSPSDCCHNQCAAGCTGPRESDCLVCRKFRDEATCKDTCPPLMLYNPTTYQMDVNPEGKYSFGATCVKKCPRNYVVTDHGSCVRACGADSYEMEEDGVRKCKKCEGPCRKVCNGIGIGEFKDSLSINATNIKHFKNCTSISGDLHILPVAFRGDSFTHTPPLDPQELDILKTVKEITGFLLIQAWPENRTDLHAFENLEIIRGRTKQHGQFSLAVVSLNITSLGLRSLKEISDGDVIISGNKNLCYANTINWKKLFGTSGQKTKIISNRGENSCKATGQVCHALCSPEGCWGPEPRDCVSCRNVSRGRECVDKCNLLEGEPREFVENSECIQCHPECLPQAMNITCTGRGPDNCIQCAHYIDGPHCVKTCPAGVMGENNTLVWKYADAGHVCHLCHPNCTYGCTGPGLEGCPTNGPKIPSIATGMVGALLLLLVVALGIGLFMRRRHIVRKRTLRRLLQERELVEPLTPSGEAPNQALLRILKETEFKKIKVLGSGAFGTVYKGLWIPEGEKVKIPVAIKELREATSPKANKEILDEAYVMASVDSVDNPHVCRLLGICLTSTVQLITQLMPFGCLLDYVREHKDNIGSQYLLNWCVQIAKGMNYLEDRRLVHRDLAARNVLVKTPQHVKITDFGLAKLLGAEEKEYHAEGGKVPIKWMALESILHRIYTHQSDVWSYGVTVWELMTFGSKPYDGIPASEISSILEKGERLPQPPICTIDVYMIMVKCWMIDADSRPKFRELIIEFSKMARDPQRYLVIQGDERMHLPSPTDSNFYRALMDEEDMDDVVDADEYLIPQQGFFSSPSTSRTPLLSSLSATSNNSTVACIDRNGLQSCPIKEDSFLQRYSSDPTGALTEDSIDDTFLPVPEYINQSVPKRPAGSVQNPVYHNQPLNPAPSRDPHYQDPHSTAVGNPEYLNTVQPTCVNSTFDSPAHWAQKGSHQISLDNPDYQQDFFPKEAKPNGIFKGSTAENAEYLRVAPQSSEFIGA
Method in brief: (§1)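 Cells seeded overnight, then treated in triplicate with 9 concentrations (3.16-fold dilutions; 0.1% DMSO final) for 72 h at 37 °C, 5% CO2. Viability by CellTiter-Glo luminescence, normalised to cell and medium controls; IC50 (nM) from nonlinear sigmoidal fit.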

A431 (EGFR-WT) = experiment: Cell proliferation assay (CellTiter-Glo), A431 cells; conditions: Homo sapiens, A-431, 72 hrs, CTG assay, * = average of multiple measurements
Method: I. Cell proliferation assay (i) Reagents and consumables • Fetal bovine serum (FBS) (GBICO, Cat #10099-141); • CellTiter-Glo® Luminescent Cell Viability Assay Kit (Promega, Cat #G7572); • Black transparent flat-bottomed 96-well plate (Corning®, Cat #3603).
• SpectraMax Multi-Label Microplate Detector MD, 2104-0010A; • CO2 incubator, Thermo Scientific 3100 Series; • Biosafety cabinet, Thermo Scientific, 1300 Series type A2; • Inverted microscope, Olympus, CKX41SF; • Siemens refrigerator KK25E76TI. (iii) Cell lines and culture conditions
(iv) Experimental procedures 1. Cell culture and seeding: • (1) Cells in the logarithmic growth phase were harvested, and counted using a platelet counter. Cell viability was detected by the trypan blue exclusion assay to ensure that the cell viability was above 90%. • (2) The cell concentration was adjusted to achieve the final density; and 90 μL of the cell suspension was added to the 96-well plate. • (3) The cells were incubated in the 96-well plate overnight at 37° C. in the presence of 5% CO2 with 95% humidity. 2. TO benchmark data: • (1) 10 μL of PBS was added to each well of the TO flat plate containing the cells. • (2) The CTG reagent was thawed, and the cell plate was equilibrated to room temperature for 30 min. • (3) An equal volume of CTG solution was added to each well. • (4) The cells were shaken for 5 min on an orbital shaker for lysis. • (5) The cell plate was left at room temperature for 20 min to stabilize luminescent signals. • (6) The values of TO luminescent signals were read. 3. Compound dilution and addition • (1) According to the compound information table, a corresponding volume of DMSO was added to the corresponding compound powder to prepare a 10 mM stock solution. • (2) Compound solutions diluted at 1000 fold and 3.16 fold were prepared. • (3) The compound solution diluted at 1000 fold was diluted at 100 fold with PBS, to prepare the compound solutions at 10 fold in 9 concentrations, with the maximum concentration of […]; and the compound solution was diluted at 3.16 fold. 10 μL of medicament solution was added to each well of the seeded 96-well plate. Three replicate wells were provided for each concentration of the compound, and the final concentration of DMSO was 0.1%. • (4) Cells were placed in the 96-well plate containing the medicament and subsequently cultured for 72 hrs at 37° C. in the presence of 5% CO2 with 95% humidity, and then, CTG assay was conducted. 4. Reading of luminescent signals • (1) The CTG reagent was thawed, and the cell plate was equilibrated to room temperature for 30 min. • (2) An equal volume of CTG solution was added to each well. • (3) The cells were shaken for 5 min on an orbital shaker for lysis.
(4) The cell plate was left at room temperature for 20 min to stabilize the luminescent signals. • (5) Luminescent values were read. Data processing
The data were analyzed using software GraphPad Prism 7.0, and fitted by the nonlinear S-curve regression to obtain a dose-effect curve, based on which the IC50 value (unit: nM) was calculated, with the specific test results shown in Table 1.
Cell viability (%)=(Lum test medicament-Lum culture medium control)/(Lum cell control-Lum culture medium control)×100%.

[2] = target: Ba/F3 EGFR-V769_D770insASV (Homo sapiens, UniProt P00533, DUP767-769, cells depend on it); experiment: Cell proliferation assay (CellTiter-Glo), Ba/F3 EGFR-V769_D770insASV cells; conditions: 72 hrs, CTG assay, * = average of multiple measurements, read-out: Ba/F3 EGFR-V769_D770insASV (nM), IC50 of cell proliferation
Sequence of Ba/F3 EGFR-V769_D770insASV (P00533 with tags, fused parts or gaps DUP767-769): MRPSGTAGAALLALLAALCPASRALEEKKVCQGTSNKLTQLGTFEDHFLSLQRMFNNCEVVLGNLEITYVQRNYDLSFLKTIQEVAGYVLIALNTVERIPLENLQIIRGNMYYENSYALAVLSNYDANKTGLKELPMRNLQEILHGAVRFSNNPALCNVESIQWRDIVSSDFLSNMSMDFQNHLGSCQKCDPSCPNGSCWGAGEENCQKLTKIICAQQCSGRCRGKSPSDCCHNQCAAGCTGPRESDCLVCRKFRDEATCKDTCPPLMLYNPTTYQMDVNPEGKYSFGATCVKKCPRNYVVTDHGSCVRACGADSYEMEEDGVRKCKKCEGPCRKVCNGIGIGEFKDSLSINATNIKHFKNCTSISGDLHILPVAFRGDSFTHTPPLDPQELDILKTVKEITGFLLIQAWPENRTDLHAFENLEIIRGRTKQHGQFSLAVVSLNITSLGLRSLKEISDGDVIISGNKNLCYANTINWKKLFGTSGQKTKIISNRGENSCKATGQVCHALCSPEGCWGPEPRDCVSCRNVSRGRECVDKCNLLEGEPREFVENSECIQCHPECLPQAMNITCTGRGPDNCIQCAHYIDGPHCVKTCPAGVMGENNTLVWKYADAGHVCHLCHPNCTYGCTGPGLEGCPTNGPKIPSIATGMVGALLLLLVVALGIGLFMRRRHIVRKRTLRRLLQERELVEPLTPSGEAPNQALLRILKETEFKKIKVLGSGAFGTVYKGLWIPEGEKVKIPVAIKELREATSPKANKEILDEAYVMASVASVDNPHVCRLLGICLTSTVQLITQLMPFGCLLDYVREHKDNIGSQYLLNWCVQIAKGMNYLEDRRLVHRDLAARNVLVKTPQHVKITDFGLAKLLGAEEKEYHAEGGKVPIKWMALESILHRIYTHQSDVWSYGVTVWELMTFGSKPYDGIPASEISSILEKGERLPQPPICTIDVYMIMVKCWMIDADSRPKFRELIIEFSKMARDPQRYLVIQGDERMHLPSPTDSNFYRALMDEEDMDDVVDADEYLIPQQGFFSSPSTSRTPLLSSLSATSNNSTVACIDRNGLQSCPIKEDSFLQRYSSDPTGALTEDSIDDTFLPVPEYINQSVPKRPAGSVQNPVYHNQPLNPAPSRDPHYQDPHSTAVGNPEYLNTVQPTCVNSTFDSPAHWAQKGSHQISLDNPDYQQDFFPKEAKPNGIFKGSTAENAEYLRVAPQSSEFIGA
Method in brief: as §1

C=CC(=O)Nc1cc(Nc2ncnc(N3CC(C)(C)c4nc(C)ccc43)n2)c(OC)cc1N(C)CCN(C)C [Example 8, N-(2-((2-(dimethylamino)ethyl) (methyl)amino)-4-methoxy-5-((4-(3,3,5-trimethyl-2,3-dihydro-1H-pyrrolo[3,2-b]pyridin-1-yl)-1,3,5-triazin-2-yl)amino)phenyl)acrylamide]
GI50 [1]: 12.5 nM | IC50 (A431 (EGFR-WT)): 71.8 nM | GI50 [2]: 17.9 nM

C=CC(=O)Nc1cc(Nc2ncnc(N3CC(C)(C)c4nc(C)c(C)cc43)n2)c(OC)cc1N(C)CCN(C)C [Example 20, N-(2-((2-(dimethylamino)ethyl) (methyl)amino)-4-methoxy-5-((4-(3,3,5,6-tetramethyl-2,3-dihydro-1H-pyrrolo[3,2-b]pyridin-1-yl)-1,3,5-triazin-2-yl)amino)phenyl)acrylamide]
GI50 [1]: 2.9 nM | IC50 (A431 (EGFR-WT)): 15.2 nM | GI50 [2]: 14 nM

C=CC(=O)Nc1cc(Nc2cc(N3CC(C)(C)c4nc(C)ccc43)ncn2)c(OC)cc1N(C)CCN(C)C [Example 11, N-(2-((2-(dimethylamino)ethyl) (methyl)amino)-4-methoxy-5-((6-(3,3,5-trimethyl-2,3-dihydro-1H-pyrrolo[3,2-b]pyridin-1-yl)pyrimidin-4-yl)amino)phenyl)acrylamide]
GI50 [1]: 40.4 nM | IC50 (A431 (EGFR-WT)): 293 nM | GI50 [2]: 73.9 nM

C=CC(=O)Nc1cc(Nc2nccc(N3CC(C)(C)c4nc(C5CC5)ccc43)n2)c(OC(F)F)cc1N(C)CCN(C)C [Example 46, N-(5-((4-(5-cyclopropyl-3,3-dimethyl-2,3-dihydro-1H-pyrrolo[3,2-b]pyridin-1-yl)pyrimidin-2-yl)amino)-4-(difluoromethoxy)-2-((2-(dimethylamino)ethyl)(methyl)amino)phenyl)acrylamide]
GI50 [1]: 22.6 nM | IC50 (A431 (EGFR-WT)): 402 nM | GI50 [2]: 21.6 nM

C=CC(=O)Nc1cc(Nc2nccc(N3CC(C)(C)c4nc(-n5ccnc5)ccc43)n2)c(OC)cc1N(C)CCN(C)C [Example 51, N-(5-((4-(5-(1H-imidazole-1-yl)-3,3-dimethyl-2,3-dihydro-1H-pyrrolo[3,2-b]pyridin-1-yl)pyrimidin-2-yl)amino)-2-((2-(dimethylamino)ethyl)(methyl)amino)-4-methoxyphenyl)acrylamide]
GI50 [1]: 34.8 nM | IC50 (A431 (EGFR-WT)): 620 nM | GI50 [2]: 123 nM

C=CC(=O)Nc1cc(Nc2cc(N3CC(C)(C)c4ncccc43)ncn2)c(OC)cc1N1CCC[C@@H]1CN(C)C [Example 12, (R)-N-(5-((6-(3,3-dimethyl-2,3-dihydro-1H-pyrrolo[3,2-b]pyridin-1-yl)pyrimidin-4-yl)amino)-2-(2-((dimethylamino)methyl)pyrrolidin-1-yl)-4-methoxyphenyl)acrylamide]
GI50 [1]: 35.3 nM | IC50 (A431 (EGFR-WT)): 89.9 nM | GI50 [2]: 70.8 nM

C=CC(=O)Nc1cc(Nc2nccc(N3CC(C)(C)c4ncccc43)n2)c(OC(F)F)cc1N(C)CCN(C)C [Example 45, N-(4-(difluoromethoxy)-5-((4-(3,3-dimethyl-2,3-dihydro-1H-pyrrolo [3,2-b]pyridin-1-yl)pyrimidin-2-yl)amino)-2-((2-(dimethylamino)ethyl)(methyl)amino)phenyl)acrylamide]
GI50 [1]: 35.8 nM | IC50 (A431 (EGFR-WT)): 1070 nM | GI50 [2]: 11.7 nM

C=CC(=O)Nc1cc(Nc2nccc(N3CC4(CCC4)c4ncccc43)n2)c(OCC(F)(F)F)nc1N(C)CCN(C)C [Example 57, N-(2-((2-(dimethylamino)ethyl) (methyl)amino)-5-((4-(spiro[cyclo-butane-1,3′-pyrrolo[3,2-b]pyridin]-1′(2′H)-yl)pyrimidin-2-yl)amino)-6-(2,2,2-trifluoroethoxy)pyridin-3-yl)acrylamide]
GI50 [1]: 32.7 nM | IC50 (A431 (EGFR-WT)): 673 nM | GI50 [2]: 79.7 nM

C=CC(=O)Nc1cc(Nc2nccc(N3CC4(CCC4)c4nc(C)ccc43)n2)c(OCC(F)(F)F)nc1N(C)CCN(C)C [Example 56, N-(2-((2-(dimethylamino)ethyl) (methyl)amino)-5-((4-(5′-methylspiro [cyclobutane-1,3′-pyrrolo[3,2-b]pyridin]-1′(2′H)-yl)pyrimidin-2-yl)amino)-6-(2,2,2-trifluoroethoxy)pyridin-3-yl)acrylamide]
GI50 [1]: 12 nM | IC50 (A431 (EGFR-WT)): 348 nM | GI50 [2]: 35.4 nM

C=CC(=O)Nc1cc(Nc2ncnc(N3CC(C)(C)c4nc(C)c(C)cc43)n2)c(OC(C)C)cc1N(C)CCN(C)C [Example 44, N-(2-((2-(dimethylamino)ethyl) (methyl)amino)-4-isopropoxy-5-((4-(3,3,5,6-tetramethyl-2,3-dihydro-1H-pyrrolo[3,2-b]pyridin-1-yl)-1,3,5-triazin-2-yl)amino)phenyl)acrylamide]
GI50 [1]: 20.1 nM | IC50 (A431 (EGFR-WT)): 108 nM | GI50 [2]: 35 nM

C=CC(=O)Nc1cc(Nc2nccc(N3CC4(CCC4)c4nc(C)ccc43)n2)c(OC)nc1N(C)CCN(C)C [Example 53, N-(2-((2-(dimethylamino)ethyl) (methyl)amino)-6-methoxy-5-((4-(5′-methylspiro[cyclobutane-1,3′-pyrrolo[3,2-b]pyridin]-1′(2′H)-yl)pyrimidin-2-yl)amino)pyridin-3-yl) acrylamide]
GI50 [1]: 14.8 nM | IC50 (A431 (EGFR-WT)): 96.9 nM | GI50 [2]: 26.3 nM

C#Cc1ccc2c(n1)C(C)(C)CN2c1ccnc(Nc2cc(NC(=O)C=C)c(N(C)CCN(C)C)cc2OC)n1 [Example 54, N-(2-((2-(dimethylamino)ethyl)(methyl)amino)-5-((4-(5-ethynyl-3,3-dimethyl-2,3-dihydro-1H-pyrrolo[3,2-b]pyridin-1-yl)pyrimidin-2-yl)amino)-4-methoxyphenyl)acrylamide]
GI50 [1]: 17.8 nM | IC50 (A431 (EGFR-WT)): 72.9 nM | GI50 [2]: 30.6 nM

C=CC(=O)Nc1cc(Nc2ncnc(N3CC4(CCCC4)c4nc(C)ccc43)n2)c(OC)cc1N(C)CCN(C)C [Example 29, N-(2-((2-(dimethylamino)ethyl) (methyl)amino)-4-methoxy-5-((4-(5′-methylspiro[cyclopentane-1,3′-pyrrolo[3,2-b]pyridin]-1′(2′H)-yl)-1,3,5-triazin-2-yl)amino)phenyl) acrylamide]
GI50 [1]: 20 nM | IC50 (A431 (EGFR-WT)): 22.1 nM | GI50 [2]: 45.5 nM

C=CC(=O)Nc1cc(Nc2cc(N3CC(C)(C)c4nc(C)ccc43)ccn2)c(OC)cc1N(C)CCN(C)C [Example 2, N-(2-((2-(dimethylamino)ethyl) (methyl)amino)-4-methoxy-5-((4-(3,3,5-trimethyl-2,3-dihydro-1H-pyrrolo[3,2-b]pyridin-1-yl)pyridin-2-yl)amino)phenyl)acrylamide]
GI50 [1]: 60.4 nM | IC50 (A431 (EGFR-WT)): 1070 nM | GI50 [2]: 97.9 nM

C=CC(=O)Nc1cc(Nc2ncnc(N3CC(C)(C)c4ncc(C)cc43)n2)c(OC)cc1N(C)CCN(C)C [Example 16, N-(2-((2-(dimethylamino)ethyl) (methyl)amino)-4-methoxy-5-((4-(3,3,6-trimethyl-2,3-dihydro-1H-pyrrolo[3,2-b]pyridin-1-yl)-1,3,5-triazin-2-yl)amino)phenyl)acrylamide]
GI50 [1]: 9.5 nM | IC50 (A431 (EGFR-WT)): 47.7 nM | GI50 [2]: 27.7 nM

C=CC(=O)Nc1cc(Nc2ncnc(N3CC(C)(C)c4nc(C)ccc43)n2)c(OC(C)C)nc1N(C)CCN(C)C [Example 48, N-(2-((2-(dimethylamino)ethyl) (methyl)amino)-6-isopropoxy-5-((4-(3,3,5-trimethyl-2,3-dihydro-1H-pyrrolo[3,2-b]pyridin-1-yl)-1,3,5-triazin-2-yl)amino)pyridin-3-yl) acrylamide]
GI50 [1]: 23.7 nM | IC50 (A431 (EGFR-WT)): 66 nM | GI50 [2]: 9.1 nM
